The values that follow come from patent publication US20230107642A1 (Erasca, Inc., priority 2020, published 2023).

In assay [1] the target is T1, Cys12 of the KRAS 4B G12C protein (Homo sapiens, UniProt P01116, G12C).
T1 construct: This protein contained 188 amino acids in total, including an N-terminal 6-Histidine tag; made in house; host or cells: E. coli BL21
Put plainly: In vitro covalent adduct formation (CAF) assay, LC-MS intact mass. It is filed as binding. As to conditions: for % CAF 10 uM @ 60 min: 10 uM compound; for CAF (% after 1 hour): 10 μM compound. As to the method: This Example provides a protocol for assessing covalent adduct formation (CAF) between the compounds of the present application and KRAS.
In vitro covalent adduct formation assay: Covalent adduct formation (CAF) reactions between Cys12 of the KRAS 4B G12C protein and some of the compounds of Tables 1 to 4 were measured in vitro using liquid chromatography-mass spectrometry (LC-MS).
Recombinant Human KRAS 4B protein containing the G12C mutation was used in compound screening experiments. This protein contained 188 amino acids in total, including an N-terminal 6-Histidine tag, followed by a Tobacco Etch Virus (TEV) tag, followed by residues 1-169 of the native KRAS 4B sequence. The exact mass of the protein was 21,310 Da as determined by mass spectrometry. The full amino acid sequence is shown below: […]
The recombinant protein was expressed in E. coli BL21 cells and purified using affinity chromatography via a Ni-NTA column. Protein stocks were nucleotide-exchanged to >95% GDP, concentrated to 4 mg/mL, and stored at −80° C. in storage buffer (50 mM HEPES pH 7.4, 50 mM NaCl, 5 mM MgCl2, 1 mM DTT). Pure KRAS 4B G12C protein was diluted to a concentration of 5 μM in Tris Buffered Saline, pH 7.4. The compounds were dissolved in DMSO and added to the diluted protein to make a 10 μM concentration. The total DMSO concentration in the reaction was 4%. The reaction was mixed by pipetting and incubated at 22° C. for one hour. Aliquots of the reaction were taken over time and diluted 2:1 in 0.1% formic acid. The intact mass of the protein samples was measured by LC-MS using a QExactive+ mass spectrometer (Thermo Scientific). An amount of 500 ng total protein was injected onto a C8 reverse phase column, eluted with a seven-minute gradient of 30%-90% acetonitrile/0.1% formic acid, and analyzed for intact mass by the mass spectrometer. Adducts identified were confirmed to be within 1 Dalton of the expected mass, and the relative ratios of free:adduct protein were used to quantify the percentage of protein bound by the compound. CAF reactions were run in duplicate, with a typical variability of ±5%.

Assay [2] addresses T2, K-Ras G12C (Homo sapiens, UniProt P01116, G12C).
T2 construct: This protein contained 188 amino acids in total, including an N-terminal 6-Histidine tag; made in house; host or cells: E. coli BL21
Put plainly: CAF assay (% CAF; method in Example 7, not in this part). In kind it is binding.

For `C=CC(=O)N1[C@H](C)CN(c2nc(=O)n3c4c(c(-c5cccc6cnn(C)c56)c(C(F)(F)F)cc24)SCC2(COC2)C3)C[C@@H]1C` (atropisomer, axis not shown) [Example 1132, (S)-8′-((3S,5R)-4-acryloyl-3,5-dimethylpiperazin-1-yl)-11′-(1-methyl-1H-indazol-7-yl)-10′-(trifluoromethyl)-2′H,4′H,6′H-spiro[oxetane-3,3′-[1,4]thiazepino [2,3,4-ij]quinazolin]-6′-one], in assay [1] (60 min incubation), the “% CAF 10 uM @ 60 min” value was determined as 85.6%. Same read-out and setting: for `C=CC(=O)N1C[C@H](C)N(c2nc(=O)n3c4c(c(-c5cc(Cl)c(F)cc5F)c(C(F)(F)F)cc24)SCC2(COC2)C3)C[C@H]1C` (single isomer, unassigned) [Example 1120] the value was 64.9%.

Regarding `C=CC(=O)N1[C@H](C)CN(c2nc(=O)n3c4c(c(-c5cc(Cl)c(F)cc5F)c(C(F)(F)F)cc24)SC[C@@H]3CN2C[C@@H]3C[C@H]2CO3)C[C@@H]1C` (atropisomer, axis not shown) [Example 1332, (3S,10S)-3-(((1S,4S)-2-oxa-5-azabicyclo[2.2.1]heptan-5-yl)methyl)-7-((3S,5R)-4-acryloyl-3,5-dimethylpiperazin-1-yl)-10-(5-chloro-2,4-difluorophenyl)-9-(trifluoromethyl)-2,3-dihydro-5H-[1,4]thiazino[2,3,4-ij]quinazolin-5-one], the “% CAF 10 uM @ 60 min” value in assay [1] (60 min) was determined as 87%.

In the case of `C=CC(=O)N1[C@H](C)CN(c2nc(=O)n3c4c(c(-c5cccc6cnn(C)c56)c(C(F)(F)F)cc24)SC[C@@H]3COC)C[C@@H]1C` (atropisomer, axis not shown) [Example 1131, (3S,10R)-7-((3S,5R)-4-acryloyl-3,5-dimethylpiperazin-1-yl)-3-(methoxymethyl)-10-(1-methyl-1H-indazol-7-yl)-9-(trifluoromethyl)-2,3-dihydro-5H-[1,4]thiazino [2,3,4-ij]quinazolin-5-one], in assay [1] (60 min incubation), the “% CAF 10 uM @ 60 min” value is 18.2%. Take `C=CC(=O)N1[C@H](C)CN(c2nc(=O)n3c4c(c(-c5cc(Cl)c(F)cc5F)c(C(F)(F)F)cc24)SCC2(CC2)C3)C[C@@H]1C` [Example 1237, 8′-((3S,5R)-4-acryloyl-3,5-dimethylpiperazin-1-yl)-11′-(5-chloro-2,4-difluorophenyl)-10′-(trifluoromethyl)-2′H,4′H,6′H-spiro[cyclopropane-1,3′-[1,4]thiazepino[2,3,4-ij]quinazolin]-6′-one]: the “CAF (% after 1 hour)” value in assay [1] was 90%. Turning to `C=C(F)C(=O)N1CCN(c2nc(=O)n3c4c(c(-c5ccc(F)cc5F)c(C(F)(F)F)cc24)SC[C@@H](OC)C3)CC1` [Example 1221, (3S)-11-(2,4-Difluorophenyl)-8-(4-(2-fluoroacryloyl)piperazin-1-yl)-3-methoxy-10-(trifluoromethyl)-3,4-dihydro-2H,6H-[1,4]thiazepino[2,3,4-ij]quinazolin-6-one], in assay [1], the “CAF (% after 1 hour)” value was determined as 61%. `C=CC(=O)N1C[C@H](C)N(c2nc(=O)n3c4c(c(-c5ccc(F)cc5F)c(Cl)cc24)SC[C@@H]3COC)C[C@H]1C` [Example 494, (3S)-7-((2S,5R)-4-acryloyl-2,5-dimethylpiperazin-1-yl)-9-chloro-10-(2,4-difluorophenyl)-3-(methoxymethyl)-2H-[1,4]thiazino[2,3,4-ij]quinazolin-5(3H)-one]: the “% CAF @ 10 uM, 1h” value in assay [2] (10 uM compound, 1 h incubation) worked out at 68.7%. Same read-out and setting: for `C=CC(=O)N1CCN(c2nc(=O)n3c4c(c(-c5ccc(F)cc5F)c(Cl)cc24)SC[C@@H]3CC2CCN(CC(F)F)CC2)[C@@H](C)C1` [Example 414, (3S)-7-((S)-4-acryloyl-2-methylpiperazin-1-yl)-9-chloro-3-((1-(2,2-difluoroethyl)piperidin-4-yl)methyl)-10-(2,4-difluorophenyl)-2H-[1,4]thiazino[2,3,4-ij]quinazolin-5(3H)-one] the value was 92%. For the compound `C=CC(=O)N1CCN(c2nc(=O)n3c4c(c(-c5c(C)ccc6[nH]ncc56)c(Cl)cc24)SCC3)[C@@H](C)C1` [Example 159, 7-((S)-4-acryloyl-2-methylpiperazin-1-yl)-9-chloro-10-(5-methyl-1H-indazol-4-yl)-2,3-dihydro-5H-[1,4]thiazino[2,3,4-ij]quinazolin-5-one], in assay [2] (10 uM, 1 h, Table 3), the “% CAF @ 10 uM, 1h” value was 37.2%. Regarding `C=CC(=O)N1CCN(c2nc(=O)n3c4c(c(-c5ccc(F)cc5F)c(C(F)(F)F)cc24)SC[C@@H]3CN2CCN(C3COC3)CC2)[C@@H](C)C1` [Example 352, (3S)-7-((S)-4-acryloyl-2-methylpiperazin-1-yl)-10-(2,4-difluorophenyl)-3-((4-(oxetan-3-yl)piperazin-1-yl)methyl)-9-(trifluoromethyl)-2H-[1,4]thiazino[2,3,4-ij]quinazolin-5(3H)-one], the “% CAF @ 10 μM, 1 h” value in assay [2] (10 μM, 1 h, Table 4) was determined as 96%. As to `C=CC(=O)N1[C@H](C)CN(c2nc(=O)n3c4c(c(-c5ccc(F)cc5F)c(C(F)(F)F)cc24)SC[C@@H]3COC)C[C@@H]1C` [Example 513, (3S)-7-((3S,5R)-4-acryloyl-3,5-dimethylpiperazin-1-yl)-10-(2,4-difluorophenyl)-3-(methoxymethyl)-9-(trifluoromethyl)-2H-[1,4]thiazino[2,3,4-ij]quinazolin-5(3H)-one], the “% CAF @ 10 uM, 1h” value in assay [2] (10 uM compound, 1 h incubation) came out at 96.2%.

Regarding `C=CC(=O)N1CCN(c2nc(=O)n3c4c(c(-c5cc(Cl)c(F)cc5F)c(Cl)cc24)SC[C@@H]3CN2CCC3(CC2)COC3)[C@@H](C)C1` [Example 456, (3S)-3-(2-oxa-7-azaspiro[3.5]nonan-7-ylmethyl)-7((S)-4-acryloyl-2-methylpiperazin-1-yl)-9-chloro-10-(5-chloro-2,4-difluorophenyl)-2H-[1,4]thiazino[2,3,4-ij]quinazolin-5(3H)-one], the “% CAF @ 10 uM, 1h” value in assay [2] (10 uM compound, 1 h incubation) was 77.6%. For the compound `C=CC(=O)N1CCN(c2nc(=O)n3c4c(c(-c5ccc(F)cc5F)c(C(F)(F)F)cc24)SC[C@@H]3COCOC)[C@@H](C)C1` (atropisomer, axis not shown) [Example 548, (3S,10R)-7-((S)-4-acryloyl-2-methylpiperazin-1-yl)-10-(2,4-difluorophenyl)-3-((methoxymethoxy)methyl)-9-(trifluoromethyl)-2,3-dihydro-5H-[1,4]thiazino[2,3,4-ij]quinazolin-5-one], the “% CAF @ 10 uM, 1h” value in assay [2] (10 uM compound, 1 h incubation) stood at 95.7%.

As for `C=CC(=O)N1CCN(c2nc(=O)n3c4c(c(-c5cc(F)c(F)cc5F)c(Cl)cc24)SC[C@@H]3CC2CCN(C3COC3)CC2)[C@@H](C)C1` [Example 421, (3S)-7-((S)-4-acryloyl-2-methylpiperazin-1-yl)-9-chloro-3-((1-(oxetan-3-yl)piperidin-4-yl)methyl)-10-(2,4,5-trifluorophenyl)-2H-[1,4]thiazino[2,3,4-ij]quinazolin-5(3H)-one], the “% CAF @ 10 uM, 1h” value in assay [2] (10 uM compound, 1 h incubation) was found to be 85.1%. With `C=CC(=O)N1CCN(c2nc(=O)n3c4c(c(-c5cc(F)cc(Cl)c5)c(Cl)cc24)SCC3)[C@@H](C)C1` [Example 73, (S)-7-(4-acryloyl-2-methylpiperazin-1-yl)-9-chloro-10-(3-chloro-5-fluorophenyl)-2,3-dihydro-5H-[1,4]thiazino[2,3,4-ij]quinazolin-5-one], the “% CAF @ 10 uM, 1h” value in assay [2] (10 uM, 1 h, Table 3) amounted to 73%.

Turning to `C=CC(=O)N1CCN(c2nc(=O)n3c4c(c(-c5ccc(F)cc5F)c(C#N)cc24)SCC3)[C@@H](C)C1` [Example 132, 7-((S)-4-acryloyl-2-methylpiperazin-1-yl)-10-(2,4-difluorophenyl)-5-oxo-2,3-dihydro-5H-[1,4]thiazino[2,3,4-ij]quinazoline-9-carbonitrile], the “% CAF @ 10 uM, 1h” value in assay [2] (10 uM, 1 h, Table 3) worked out at 91.9%.
